Values of other authors, collected in PMC11865562 (Scientific Reports, 2025).

Test system: P-gp

CNC(=O)c1ccc(-c2cnc3ncc(Cc4ccc5ncccc5c4)n3n2)cc1F [Capmatinib, capmatinib]
P-gp substrate (reported): P-gp substrate
